Data as given in US20160297830A1, “NOVEL COMPOUNDS USEFUL FOR THE TREATMENT OF BACTERIAL INFECTIOUS DISEASES” (GALAPAGOS NV, priority 2013, published 2016).
In brackets after ≈: the same amount, converted by molar mass. Like-named read-outs stand apart in the source and are kept apart here.

Key:
[1] = system: H. influenza Hi106 ATCC 51907; experiment: organism not typed; format: cell-based; conditions: read-out: MIC Hi106
[2] = system: H. influenza Hi47 clinical strain, Ampicillin Resistant; experiment: organism not typed; format: cell-based; conditions: read-out: MIC Hi47
[3] = system: S. aureus Sa26 ATCC 25923; experiment: Antibacterial activity assay (MIC), S. aureus Sa26; format: cell-based; conditions: Staphylococcus aureus
[4] = system: E. coli Ec50 efflux pump KO; experiment: microbe, parasite or virus in culture; format: cell-based; conditions: Escherichia coli, read-out: MIC Ec50 efflux pump KO
[5] = system: H. influenza Hi3 ATCC 31517; experiment: organism not typed; format: cell-based; conditions: read-out: MIC Hi3
[6] = system: S. aureus Sa2 clinical strain NCIMB 41953, MRSA; experiment: microbe, parasite or virus in culture; format: cell-based; conditions: Staphylococcus aureus, read-out: MIC Sa2
[7] = system: E. coli Ec113 efflux pump KO; experiment: microbe, parasite or virus in culture; format: cell-based; conditions: Escherichia coli, read-out: MIC Ec113 efflux pump KO
[8] = system: S. aureus Sa1 ATCC 13709; experiment: microbe, parasite or virus in culture; format: cell-based; conditions: Staphylococcus aureus
[9] = system: S. aureus Sa4 NCTC 6571; experiment: Antibacterial activity assay (MIC), S. aureus Sa4; format: cell-based; conditions: Staphylococcus aureus
[10] = system: E. coli Ec1 ATCC 25922; experiment: Antibacterial activity assay (MIC), E. coli Ec1; format: cell-based; conditions: Escherichia coli
[11] = system: H. influenza Hi10 clinical strain; experiment: organism not typed; format: cell-based; conditions: read-out: MIC Hi10
[12] = biological target: DNA Polymerase IIIα (DnaE) from Staphylococcus aureus (Staphylococcus aureus, UniProt Q6GG04); experiment: biochemical
[13] = system: Methicillin Resistant S. aureus (MRSA); experiment: Neutropenic mouse thigh infection model; conditions: Thigh Sa
[14] = ATCC25923, read-out: MIC Sa26 + 10% SH
[15] = ATCC25923, read-out: MIC Sa26 + 50% SH
[16] = ATCC25923, read-out: MIC Sa26 + 10% SH, S. aureus Sa26 + 10% SH
[17] = ATCC25923, read-out: MIC Sa26 + 50% SH, S. aureus Sa26 + 50% SH
[18] = ATCC25923, S. aureus Sa26 ATCC 25923, sensitive strain, Mueller-Hinton Broth, 37° C., read-out: MIC Sa26
[19] = ATCC13709, S. aureus Sa1 ATCC 13709, sensitive strain, Mueller-Hinton Broth, 37° C., read-out: MIC Sa1
[20] = NCTC6571, S. aureus Sa4 NCTC 6571, sensitive strain, read-out: MIC Sa4
[21] = ATCC25922, E. coli Ec1 ATCC 25922, sensitive strain, read-out: MIC Ec1
[22] = Study 6, 25 mg/kg PO BID, sample time 24 h PI
[23] = Study 7, 15 mg/kg PO BID, sample time 24 h PI
[24] = Study 7, 50 mg/kg PO BID, sample time 24 h PI
[25] = Study 8, 50 mg/kg PO QD, sample time 48 h PI
[26] = Study 9, 50 mg/kg PO BID, sample time 24 h PI

Chain of DNA Polymerase IIIα (DnaE) from Staphylococcus aureus (Q6GG04 1-1022): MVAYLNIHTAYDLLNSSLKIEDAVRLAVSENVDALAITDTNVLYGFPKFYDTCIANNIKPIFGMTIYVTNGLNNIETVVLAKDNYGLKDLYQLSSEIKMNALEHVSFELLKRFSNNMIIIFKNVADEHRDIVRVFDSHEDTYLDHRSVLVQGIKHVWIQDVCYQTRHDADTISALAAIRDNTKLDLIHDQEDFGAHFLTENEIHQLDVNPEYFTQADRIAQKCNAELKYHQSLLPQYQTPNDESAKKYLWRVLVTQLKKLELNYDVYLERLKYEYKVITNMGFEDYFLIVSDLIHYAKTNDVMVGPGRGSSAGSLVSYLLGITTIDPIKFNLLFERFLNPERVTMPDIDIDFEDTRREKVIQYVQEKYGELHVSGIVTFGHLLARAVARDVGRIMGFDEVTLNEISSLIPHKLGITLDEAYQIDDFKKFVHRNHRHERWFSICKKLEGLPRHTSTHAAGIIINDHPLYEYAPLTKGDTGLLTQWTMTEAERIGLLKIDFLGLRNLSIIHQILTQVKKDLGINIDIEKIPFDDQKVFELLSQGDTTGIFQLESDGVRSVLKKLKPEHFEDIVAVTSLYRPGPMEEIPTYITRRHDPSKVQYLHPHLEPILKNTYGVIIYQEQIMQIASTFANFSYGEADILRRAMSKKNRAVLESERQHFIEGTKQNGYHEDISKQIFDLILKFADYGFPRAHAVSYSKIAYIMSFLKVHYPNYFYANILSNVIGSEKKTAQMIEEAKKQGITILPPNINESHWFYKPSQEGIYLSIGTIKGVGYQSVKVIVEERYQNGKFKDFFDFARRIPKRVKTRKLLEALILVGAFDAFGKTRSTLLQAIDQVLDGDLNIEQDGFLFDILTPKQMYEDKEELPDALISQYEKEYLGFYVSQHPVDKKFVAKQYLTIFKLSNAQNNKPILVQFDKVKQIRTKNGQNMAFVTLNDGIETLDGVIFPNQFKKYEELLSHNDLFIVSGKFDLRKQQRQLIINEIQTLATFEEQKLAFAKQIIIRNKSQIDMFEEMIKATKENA

Structure (SMILES): COC[C@@H](O)[C@H]1OC(=O)[C@H](COC)[C@H]2C=C[C@H]3[C@H]4O[C@]2(/C(C)=C/[C@H]1C)[C@@H]3[C@H](O)[C@@H](C)[C@H]4OC(=O)c1cc(Cl)c[nH]1 [Compound 30, 8-O-4-Chloro-1H-pyrrole-2′-carbonylbaleomycin]
- MIC [1]: > 64 µg/mL
- MIC [2]: 64 µg/mL (≈ 110 µM)
- MIC ([3]; ATCC25923, read-out: MIC Sa26): 16 µg/mL (≈ 27.6 µM)
- MIC [3, 14]: 32 µg/mL
- MIC [3, 15]: 64 µg/mL
- MIC [4]: 16 µg/mL (≈ 27.6 µM)
- MIC [5]: > 64 µg/mL
- MIC [6]: 8 µg/mL (≈ 13.8 µM)
- MIC [7]: 0.5 µg/mL (≈ 0.862 µM)
- MIC ([8]; ATCC13709, read-out: MIC Sa1): 16 µg/mL (≈ 27.6 µM)
- MIC ([9]; NCTC6571, read-out: MIC Sa4): 16 µg/mL (≈ 27.6 µM)
- MIC ([10]; ATCC25922, read-out: MIC Ec1): > 64 µg/mL
- MIC [11]: 64 µg/mL (≈ 110 µM)

Structure (SMILES): COC[C@@H]1[C@@H](O)[C@@H]2[C@H]3C=C[C@@H]4[C@@H](COC)C(=O)O[C@H]([C@H](O)COC)[C@H](C)/C=C(\C)[C@@]24O[C@H]3[C@@H]1OC(=O)c1cc(Cl)c(Cl)[nH]1 [Compound 31, 8-O-4,5-Dichloro-1H-pyrrole-2′-carbonylbranimycin]
- MIC [1]: 32 µg/mL (≈ 49.6 µM)
- MIC [2]: 32 µg/mL (≈ 49.6 µM)
- MIC ([3]; ATCC25923, read-out: MIC Sa26): > 64 µg/mL
- MIC [3, 14]: > 64 µg/mL
- MIC [3, 15]: > 64 µg/mL
- MIC [4]: > 64 µg/mL
- MIC [5]: > 64 µg/mL
- MIC [6]: 64 µg/mL (≈ 99.3 µM)
- MIC [7]: 32 µg/mL (≈ 49.6 µM)
- MIC ([8]; ATCC13709, read-out: MIC Sa1): > 64 µg/mL
- MIC ([9]; NCTC6571, read-out: MIC Sa4): 64 µg/mL (≈ 99.3 µM)
- MIC ([10]; ATCC25922, read-out: MIC Ec1): > 64 µg/mL
- MIC [11]: 16 µg/mL (≈ 24.8 µM)

Structure (SMILES): COC[C@@H]1[C@@H](O)[C@@H]2[C@H]3C=C[C@@H]4[C@@H](COC)C(=O)O[C@H]([C@H](O)COC)[C@H](C)/C=C(\C)[C@@]24O[C@H]3[C@@H]1OC(=O)c1cc(F)c(F)[nH]1 [Compound 38, 8-O-4,5-Difluoro-1H-pyrrole-2′-carbonylbranimycin]
- MIC [1]: > 64 µg/mL
- MIC [2]: > 64 µg/mL
- MIC [3, 16]: > 64 µg/mL
- MIC [3, 17]: 64 µg/mL
- MIC [3, 18]: 64 µg/mL (≈ 105 µM)
- MIC [4]: > 64 µg/mL
- MIC [5]: > 64 µg/mL
- MIC [6]: 32 µg/mL (≈ 52.3 µM)
- MIC [7]: 8 µg/mL (≈ 13.1 µM)
- MIC [8, 19]: 32 µg/mL (≈ 52.3 µM)
- MIC [9, 20]: 16 µg/mL (≈ 26.2 µM)
- MIC [10, 21]: > 64 µg/mL
- MIC [11]: > 64 µg/mL

Structure (SMILES): COCC(=NO)[C@H]1OC(=O)[C@H](COC)[C@H]2C=C[C@H]3[C@H]4O[C@]2(/C(C)=C/[C@H]1C)[C@@H]3[C@H](O)[C@@H](COC)[C@H]4OC(=O)c1cc(Cl)c[nH]1 [Compound 41, 18-Deoxy-18-oximino-8-O-4-Chloro-1H-pyrrole-2′-carbonylbranimycin]
- MIC [1]: > 64 µg/mL
- MIC [2]: > 64 µg/mL
- MIC [3, 16]: 4 µg/mL
- MIC [3, 17]: 32 µg/mL
- MIC [3, 18]: 2 µg/mL (≈ 3.21 µM)
- MIC [4]: 64 µg/mL (≈ 103 µM)
- MIC [5]: > 64 µg/mL
- IC50 [12]: 0.0016 to 1.6 µM
- MIC [7]: 2 µg/mL (≈ 3.21 µM)
- MIC [8, 19]: 4 µg/mL (≈ 6.42 µM)
- MIC [9, 20]: 2 µg/mL (≈ 3.21 µM)
- MIC [10, 21]: > 64 µg/mL
- MIC [11]: > 64 µg/mL

Structure (SMILES): COCC(=NOC(C)=O)[C@H]1OC(=O)[C@H](COC)[C@H]2C=C[C@H]3[C@H]4O[C@]2(/C(C)=C/[C@H]1C)[C@@H]3[C@H](O)[C@@H](COC)[C@H]4OC(=O)c1cc(Cl)c[nH]1 [Compound 42, 18-Acetylimino-18-deoxy-8-O-4-Chloro-1H-pyrrole-2′-carbonylbranimycin]
- MIC [1]: > 64 µg/mL
- MIC [2]: > 64 µg/mL
- MIC [3, 16]: 16 µg/mL
- MIC [3, 17]: 32 µg/mL
- MIC [3, 18]: 4 µg/mL (≈ 6.01 µM)
- MIC [4]: 64 µg/mL (≈ 96.2 µM)
- MIC [5]: > 64 µg/mL
- MIC [6]: 2 µg/mL (≈ 3.01 µM)
- MIC [7]: 4 µg/mL (≈ 6.01 µM)
- MIC [8, 19]: 2 µg/mL (≈ 3.01 µM)
- MIC [9, 20]: 2 µg/mL (≈ 3.01 µM)
- MIC [10, 21]: > 64 µg/mL
- MIC [11]: > 64 µg/mL

Structure (SMILES): CC(=O)NC[C@H]1CN(c2ccc(N3CCOCC3)c(F)c2)C(=O)O1 [Linezolid]
- Log reduction vs. untreated ([13]; Study 5, 50 mg/kg PO BID, sample time 24 h PI): −4.07
- Active ([13]; Study 5, 50 mg/kg SC BID, sample time 24 h PI): Y
- Active [13, 22]: Y
- Log reduction vs. untreated [13, 22]: −4.54
- Log reduction vs. untreated ([13]; Study 6, 50 mg/kg PO BID, sample time 24 h PI): −3.49
- Active [13, 23]: Y
- Log reduction vs. untreated [13, 23]: −2.98
- Active [13, 24]: Y
- Log reduction vs. untreated [13, 24]: −5.13
- Active [13, 25]: Y
- Log reduction vs. untreated [13, 25]: −2.78
- Active [13, 26]: Y
- Log reduction vs. untreated [13, 26]: −4.01
